According to patent publication US20230233569A1 (Revolution Medicines, Inc., priority 2020, published 2023):
Values joined by “and” are separate entries in the source; they are usually repeats but may differ in a detail not shown here. Equal entries are not always repeated.

What was measured:
[1] = tested on: K-Ras G12C (NCI-H358 cells); assay: Potency assay: pERK (AlphaLISA SureFire or In-Cell Western); assay type: cell-based; conditions: Homo sapiens, NCI-H358; H358 KRAS G12C; read-out: pERK EC50
Method: (§1) The purpose of this assay is to measure the ability of test compounds to inhibit K-Ras in cells. […] This procedure measures a decrease in cellular pERK in response to test compounds.
(§2) NCI-H358 cells were grown and maintained using media and procedures recommended by the ATCC. On the day prior to compound addition, cells were plated in 384-well cell culture plates (40 μl/well) and grown overnight in a 37° C., 5% CO2 incubator. Test compounds were prepared in 10, 3-fold dilutions in DMSO, with a high concentration of 10 mM. On the day of assay, 40 nL of test compound was added to each well of cell culture plate using an Echo550 liquid handler (LabCyte®). Concentrations of test compound were tested in duplicate. After compound addition, cells were incubated 4 hours at 37° C., 5% CO2. Following incubation, culture medium was removed and cells were washed once with phosphate buffered saline.
(§3) In some experiments, cellular pERK level was determined using the AlphaLISA SureFire Ultra p-ERK1/2 Assay Kit (PerkinElmer). Cells were lysed in 25 μL lysis buffer, with shaking at 600 RPM at room temperature. […] After a 2-hour incubation in the dark, 5 μL donor mix was added, plate was sealed, and incubated 2 hours at room temperature. Signal was read on an Envision plate reader (PerkinElmer) using standard AlphaLISA settings. Analysis of raw data was carried out in Excel (Microsoft) and Prism (GraphPad). Signal was plotted vs. the decadal logarithm of compound concentration, and IC50 was determined by fitting a 4-parameter sigmoidal concentration response model.
In other experiments, cellular pERK was determined by In-Cell Western. […] Fixed cells were washed 4 times for 5 minutes with TBS containing 0.1% Triton X-100 (TBST) and then blocked with 100 μL Odyssey blocking buffer (LI-COR) for 60 minutes at room temperature. […] Cells were washed 4 times for 5 minutes with TBST. Secondary antibody (IR-800CW rabbit, LI-COR, diluted 1:800) and DNA stain DRAQ5 (LI-COR, diluted 1:2000) were added and incubated 1-2 hours at room temperature. Cells were washed 4 times for 5 minutes with TBST. Plates were scanned on a LI-COR Odyssey CLx Imager. Analysis of raw data was carried out in Excel (Microsoft) and Prism (GraphPad). Signal was plotted vs. the decadal logarithm of compound concentration, and IC50 was determined by fitting a 4-parameter sigmoidal concentration response model.
as §1
as §2, with “mM. On day of” for “mM. On the day of”, “assay, 40 nl of test” for “assay, 40 nL of test”
as §3, with “μl” for “μL”, “sealed” for “sealed,”

KRAS G13C = KRAS G13C (Homo sapiens, UniProt P01116+P62937, G13C); assay: Disruption of BRAF RBD interaction with Ras (FRET / MOA assay, with Cyclophilin A); assay type: biochemical; conditions: KRAS G13C; read-out: KRAS G13C FRET data IC50
Sequence of KRAS G13C (P01116 1-169 isoform P01116-2 G13C): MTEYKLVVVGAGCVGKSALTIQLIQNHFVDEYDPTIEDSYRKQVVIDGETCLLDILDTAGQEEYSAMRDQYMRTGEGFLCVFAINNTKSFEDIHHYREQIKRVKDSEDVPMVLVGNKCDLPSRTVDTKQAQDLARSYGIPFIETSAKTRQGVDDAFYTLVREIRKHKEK
Sequence of KRAS G13C (P62937 whole entry): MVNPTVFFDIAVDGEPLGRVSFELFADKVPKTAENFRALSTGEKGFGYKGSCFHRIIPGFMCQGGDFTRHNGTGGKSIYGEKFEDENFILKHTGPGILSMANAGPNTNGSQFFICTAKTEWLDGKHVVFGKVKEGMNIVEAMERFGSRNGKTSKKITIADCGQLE
Procedure, shortened: (§4)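 TR-FRET: nucleotide-loaded K-Ras mutant or WT with Cyclophilin A and BRAF RBD, compound 10-point 3-fold from 30 μM final, 3 h at 25° C, then anti-His Eu (10 nM) and anti-GST APC (50 nM) for 1.5 h. Decreased FRET ratio versus DMSO gives IC50.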

KRAS G12D = KRAS G12D (Homo sapiens, UniProt P01116+P62937, G12D); assay: as above; assay type: biochemical; conditions: read-out: KRAS G12D FRET data, IC50
Sequence of KRAS G12D (P01116 1-169 isoform P01116-2 G12D limits assumed): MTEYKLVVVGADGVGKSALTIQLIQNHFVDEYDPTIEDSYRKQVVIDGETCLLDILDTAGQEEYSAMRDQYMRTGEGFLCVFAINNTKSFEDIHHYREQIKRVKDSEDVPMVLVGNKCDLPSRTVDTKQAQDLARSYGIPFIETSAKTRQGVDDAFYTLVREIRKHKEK
Sequence of KRAS G12D (P62937 whole entry): as the sequence (P62937 whole entry) above
Procedure, shortened: as §4

KRAS G12S = KRAS G12S (Homo sapiens, UniProt P01116+P62937, G12S); assay: as above; assay type: biochemical; conditions: read-out: KRAS G12S FRET data, IC50
Sequence of KRAS G12S (P01116 1-169 isoform P01116-2 G12S limits assumed): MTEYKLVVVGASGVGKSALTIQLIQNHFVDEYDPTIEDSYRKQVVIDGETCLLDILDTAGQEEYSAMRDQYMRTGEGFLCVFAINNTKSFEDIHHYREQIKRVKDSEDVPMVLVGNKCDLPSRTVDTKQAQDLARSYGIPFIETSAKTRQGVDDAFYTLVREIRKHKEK
Sequence of KRAS G12S (P62937 whole entry): as the sequence (P62937 whole entry) above
Procedure, shortened: as §4

KRAS G12C = KRAS G12C (Homo sapiens, UniProt P01116+P62937, G12C); assay: as above; assay type: biochemical; conditions: KRAS G12C; read-out: KRAS G12C FRET data IC50
Sequence of KRAS G12C (P01116 1-169 isoform P01116-2 G12C): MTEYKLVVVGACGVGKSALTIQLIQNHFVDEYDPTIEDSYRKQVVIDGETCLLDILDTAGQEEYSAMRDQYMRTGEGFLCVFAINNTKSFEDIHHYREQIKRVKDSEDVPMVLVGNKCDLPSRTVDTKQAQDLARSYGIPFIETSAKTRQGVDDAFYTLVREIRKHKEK
Sequence of KRAS G12C (P62937 whole entry): as the sequence (P62937 whole entry) above
Procedure, shortened: as §4

KRAS WT = KRAS WT (Homo sapiens, UniProt P01116+P62937); assay: as above; assay type: biochemical; conditions: KRAS WT; read-out: KRAS WT FRET data IC50
Sequence of KRAS WT (P01116 1-169 isoform P01116-2 limits assumed): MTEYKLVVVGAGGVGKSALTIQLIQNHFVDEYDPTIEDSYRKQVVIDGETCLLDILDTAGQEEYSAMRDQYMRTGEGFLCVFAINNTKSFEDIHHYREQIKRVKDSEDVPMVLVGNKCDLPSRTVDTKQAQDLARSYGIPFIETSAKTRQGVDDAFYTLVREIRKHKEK
Sequence of KRAS WT (P62937 whole entry): as the sequence (P62937 whole entry) above
Procedure, shortened: as §4

KRAS G12V = KRAS G12V (Homo sapiens, UniProt P01116+P62937, G12V); assay: as above; assay type: biochemical; conditions: KRAS G12V; read-out: KRAS G12V FRET data IC50
Sequence of KRAS G12V (P01116 1-169 isoform P01116-2 G12V limits assumed): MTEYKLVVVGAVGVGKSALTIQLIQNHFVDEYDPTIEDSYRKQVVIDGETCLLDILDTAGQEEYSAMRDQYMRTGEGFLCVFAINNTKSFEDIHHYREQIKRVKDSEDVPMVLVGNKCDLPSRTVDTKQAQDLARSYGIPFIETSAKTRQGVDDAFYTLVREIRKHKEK
Sequence of KRAS G12V (P62937 whole entry): as the sequence (P62937 whole entry) above
Procedure, shortened: as §4

C=CC(=O)N1CC[C@H](C(=O)N(C)[C@H](C(=O)N[C@H]2Cc3cc(O)cc(c3)-c3ccc4c(c3)c(c(-c3cnn(C)c3[C@H](C)OC)n4CC)CC(C)(C)COC(=O)[C@@H]3CCCN(N3)C2=O)C(C)C)C1 [Example A166] was tested, and the EC50 [1] was < 5 µM.

C=CC(=O)N1CC[C@H](C(=O)N(C)[C@H](C(=O)N[C@H]2Cc3cc(O)cc(c3)-c3ccc4c(C(C)(C)C#N)c(-c5ccccc5CCOC)n(c4c3)CC(C)(C)COC(=O)[C@@H]3CCCN(N3)C2=O)C(C)C)C1 [Example A12] was tested, and the EC50 [1] was < 5 µM.

C=CC(=O)N1CC[C@]2(CCN([C@H](C(=O)N[C@H]3Cc4cc(O)cc(c4)-c4ccc5c(c4)c(c(-c4ccccc4CCOC)n5CC)CC(C)(C)COC(=O)[C@@H]4CCCN(N4)C3=O)C(C)C)C2=O)C1 [Example A216] was tested, and the IC50 (KRAS G13C) was 0.1 to 1 µM and > 10 µM, the IC50 (KRAS G12D) was > 10 µM and the IC50 (KRAS G12S) was 1 to 10 µM and > 10 µM. The IC50 (KRAS G12C) was 0.1 to 1 µM and 1 to 10 µM, the IC50 (KRAS WT) was 1 to 10 µM and > 10 µM and the IC50 (KRAS G12V) was 1 to 10 µM and > 10 µM. The EC50 [1] was < 5 µM.
